Test system: Transport facilitation protein genes
Assay: DNA chip mRNA expression in yeast, transport facilitation protein genes (Table 5)
Assay type: cell-based, Saccharomyces cerevisiae S288C
Method in brief: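 Measured as treated-to-untreated fluorescence ratio on a full-genome yeast DNA chip. Cells (S288C, YPD, 25° C.) were exposed in log phase for two hours to one chemical, dosed to curb growth without killing.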

## C[S+](C)[O-] [(15), dimethylsulfoxide]
Yeast gene YBR052C
  The level of expressed mRNA in the presence of chemical substance/The level of expressed mRNA in the absence of chemical substance: 0.7
Yeast gene YIL022W
  The level of expressed mRNA in the presence of chemical substance/The level of expressed mRNA in the absence of chemical substance: 2.9
Yeast gene YKL016C
  The level of expressed mRNA in the presence of chemical substance/The level of expressed mRNA in the absence of chemical substance: 0.7
Yeast gene YLR081W
  The level of expressed mRNA in the presence of chemical substance/The level of expressed mRNA in the absence of chemical substance: 0.7
Yeast gene YPR194C
  The level of expressed mRNA in the presence of chemical substance/The level of expressed mRNA in the absence of chemical substance: 0.4

Reference: patent publication US8192962B2, “Processes for detecting toxic substances” (Daikin Industries, Ltd., priority 2001, dated 2012)
